Source: patent publication US9790228B2, “Heterocyclic kinase inhibitors” (Intellikine LLC, priority 2008, dated 2017)
Read-outs that look alike come from different tables or passages of the source.

What was measured:
[1] = biological target: p110γ (Homo sapiens (Human), UniProt P48736); assay: PI3K γ inhibition assay (TLC lipid kinase or HTRF); format: biochemical
Method: (§1) Class I PI3-Ks can be either purchased (p110α/p85α, p110β/p85α, p110δ/p85α from Upstate, and p110γ from Sigma) or expressed as previously described (Knight et al., 2004). IC50 values are measured using either a standard TLC assay for lipid kinase activity (described below) or a high-throughput membrane capture assay. Kinase reactions are performed by preparing a reaction mixture containing kinase, inhibitor (2% DMSO final concentration), buffer (25 mM HEPES, pH 7.4, 10 mM MgCl2), and freshly sonicated phosphatidylinositol (100 μg/ml). Reactions are initiated by the addition of ATP containing 10 μCi of γ-32P-ATP to a final concentration 10 or 100 μM and allowed to proceed for 5 minutes at room temperature. For TLC analysis, reactions are then terminated by the addition of […] 1N HCl followed by 160 μl CHCl3:MeOH (1:1). The biphasic mixture is vortexed, briefly centrifuged, and the organic phase is transferred to a new tube using a gel loading pipette tip precoated with CHCl3. This extract is spotted on TLC plates and developed for 3-4 hours in a 65:35 solution of n-propanol:1M acetic acid. The TLC plates are then dried, exposed to a phosphorimager screen (Storm, Amersham), and quantitated. For each compound, kinase activity is measured at 10-12 inhibitor concentrations representing two-fold dilutions from the highest concentration tested (typically, 200 μM).
(§2) Other commercial kits or systems for assaying PI3-K activities are available. The commercially available kits or systems can be used to screen for inhibitors and/or agonists of PI3-Ks including but not limited to PI 3-Kinase α, β, δ, and γ. Anr exemplary system is PI3-Kinase (human) HTRF™ Assay from Upstate. […] Briefly, the assay is a time resolved FRET assay that indirectly measures PIP3 product formed by the activity of a PI3-K. The kinase reaction is performed in a microtitre plate (e.g., a 384 well microtitre plate). The total reaction volume is approximately 20 ul per well. In the first step, each well receives 2 ul of test compound in 20% dimethylsulphoxide resulting in a 2% DMSO final concentration. Next, approximately 14.5 ul of a kinase/PIP2 mixture (diluted in 1× reaction buffer) is added per well for a final concentration of 0.25-0.3 ug/ml kinase and 10 uM PIP2. The plate is sealed and incubated for 15 minutes at room temperature. To start the reaction, 3.5 ul of ATP (diluted in 1× reaction buffer) is added per well for a final concentration of 10 uM ATP. The plate is sealed and incubated for 1 hour at room temperature. The reaction is stopped by adding 5 ul of Stop Solution per well and then 5 ul of Detection Mix is added per well. The plate is sealed, incubated for 1 hour at room temperature, and then read on an appropriate plate reader. Data is analyzed and IC50s are generated using GraphPad Prism 5.

[2] = biological target: p110α/p85α (Homo sapiens (Human), UniProt P42336); assay: PI3K α inhibition assay (TLC lipid kinase or HTRF); format: biochemical
Method: as §1, §2

[3] = biological target: p110δ/p85α (Homo sapiens (Human), UniProt O00329); assay: PI3K δ inhibition assay (TLC lipid kinase or HTRF); format: biochemical
Method: as §1, §2

[4] = test system: Balb/c splenic B cells; assay: B cell activation and proliferation assay (Alamar Blue); format: cell-based, mouse
Method: The ability of one or more subject compounds to inhibit B cell activation and proliferation is determined according to standard procedures known in the art. For example, an in vitro cellular proliferation assay is established that measures the metabolic activity of live cells. The assay is performed in a 96 well microtiter plate using Alamar Blue reduction. Balb/c splenic B cells are purified over a Ficoll-Paque™ PLUS gradient followed by magnetic cell separation using a MACS B cell Isolation Kit (Miletenyi). Cells are plated in 90 ul at 50,000 cells/well in B Cell Media (RPMI+10% FBS+Penn/Strep+50 uM bME+5 mM HEPES). A compound disclosed herein is diluted in B Cell Media and added in a 10 ul volume. Plates are incubated for 30 min at 37 C and 5% CO2 (0.2% DMSO final concentration). A 50 ul B cell stimulation cocktail is then added containing either 10 ug/ml LPS or 5 ug/ml F(ab′)2 Donkey anti-mouse IgM plus 2 ng/ml recombinant mouse IL4 in B Cell Media. Plates are incubated for 72 hours at 37° C. and 5% CO2. A volume of 15 uL of Alamar Blue reagent is added to each well and plates are incubated for 5 hours at 37 C and 5% CO2. Alamar Blue fluoresce is read at 560Ex/590Em, and IC50 or EC50 values are calculated using GraphPad Prism 5.

[5] = biological target: p110β/p85α (Homo sapiens, UniProt P42338); assay: PI3K β inhibition assay (TLC lipid kinase or HTRF); format: biochemical; conditions: read-out: PI3K β IC50
Method: as §1, §2

Chain of p110α/p85α (P42336 whole entry): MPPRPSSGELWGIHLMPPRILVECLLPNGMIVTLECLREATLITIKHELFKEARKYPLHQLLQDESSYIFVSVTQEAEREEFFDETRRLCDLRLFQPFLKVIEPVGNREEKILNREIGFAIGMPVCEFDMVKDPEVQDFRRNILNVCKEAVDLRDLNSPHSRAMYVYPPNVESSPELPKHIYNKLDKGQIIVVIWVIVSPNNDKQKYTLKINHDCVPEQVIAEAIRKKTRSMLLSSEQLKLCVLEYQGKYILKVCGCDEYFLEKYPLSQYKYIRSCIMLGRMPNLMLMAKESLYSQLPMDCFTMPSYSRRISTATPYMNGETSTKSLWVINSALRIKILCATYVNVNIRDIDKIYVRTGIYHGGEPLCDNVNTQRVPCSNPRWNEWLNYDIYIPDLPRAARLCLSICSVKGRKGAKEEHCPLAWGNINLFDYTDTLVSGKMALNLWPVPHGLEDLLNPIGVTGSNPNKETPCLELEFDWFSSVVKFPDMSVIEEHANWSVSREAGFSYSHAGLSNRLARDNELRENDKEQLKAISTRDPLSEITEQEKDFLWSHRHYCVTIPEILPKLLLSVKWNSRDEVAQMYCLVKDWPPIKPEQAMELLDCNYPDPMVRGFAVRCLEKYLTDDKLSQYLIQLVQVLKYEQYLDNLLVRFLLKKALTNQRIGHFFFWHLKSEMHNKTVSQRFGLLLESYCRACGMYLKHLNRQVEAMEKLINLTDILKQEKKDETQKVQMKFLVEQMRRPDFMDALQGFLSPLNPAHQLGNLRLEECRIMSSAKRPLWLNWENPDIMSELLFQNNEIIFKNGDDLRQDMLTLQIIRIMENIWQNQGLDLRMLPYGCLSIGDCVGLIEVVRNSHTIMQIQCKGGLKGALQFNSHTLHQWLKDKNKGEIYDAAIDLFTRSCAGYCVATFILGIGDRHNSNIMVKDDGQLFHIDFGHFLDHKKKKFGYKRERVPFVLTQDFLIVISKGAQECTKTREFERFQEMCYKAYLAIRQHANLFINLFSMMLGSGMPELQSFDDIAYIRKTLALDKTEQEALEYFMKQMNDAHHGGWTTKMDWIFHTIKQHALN
Chain of p110α/p85α (P27986 whole entry partner): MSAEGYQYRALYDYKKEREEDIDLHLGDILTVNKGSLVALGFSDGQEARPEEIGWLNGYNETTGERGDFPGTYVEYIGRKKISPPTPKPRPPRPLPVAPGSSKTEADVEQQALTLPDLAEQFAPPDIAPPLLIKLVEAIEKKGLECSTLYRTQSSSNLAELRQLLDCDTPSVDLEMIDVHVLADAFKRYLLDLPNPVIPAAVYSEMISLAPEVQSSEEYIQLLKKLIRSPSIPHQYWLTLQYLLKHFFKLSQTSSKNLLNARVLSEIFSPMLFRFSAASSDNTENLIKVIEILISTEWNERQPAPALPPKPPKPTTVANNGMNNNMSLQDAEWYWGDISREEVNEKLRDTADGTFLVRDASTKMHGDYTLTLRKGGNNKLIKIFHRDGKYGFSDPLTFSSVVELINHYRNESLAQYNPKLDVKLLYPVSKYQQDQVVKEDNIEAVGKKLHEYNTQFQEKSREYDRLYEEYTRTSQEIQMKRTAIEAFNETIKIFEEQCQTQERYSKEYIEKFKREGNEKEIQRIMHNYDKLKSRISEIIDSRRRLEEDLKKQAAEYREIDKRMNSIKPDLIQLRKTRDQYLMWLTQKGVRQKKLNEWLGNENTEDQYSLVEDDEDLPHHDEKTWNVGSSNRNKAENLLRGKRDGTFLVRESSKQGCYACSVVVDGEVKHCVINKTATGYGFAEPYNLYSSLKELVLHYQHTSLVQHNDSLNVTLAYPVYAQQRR
Chain of p110γ (P48736 whole entry): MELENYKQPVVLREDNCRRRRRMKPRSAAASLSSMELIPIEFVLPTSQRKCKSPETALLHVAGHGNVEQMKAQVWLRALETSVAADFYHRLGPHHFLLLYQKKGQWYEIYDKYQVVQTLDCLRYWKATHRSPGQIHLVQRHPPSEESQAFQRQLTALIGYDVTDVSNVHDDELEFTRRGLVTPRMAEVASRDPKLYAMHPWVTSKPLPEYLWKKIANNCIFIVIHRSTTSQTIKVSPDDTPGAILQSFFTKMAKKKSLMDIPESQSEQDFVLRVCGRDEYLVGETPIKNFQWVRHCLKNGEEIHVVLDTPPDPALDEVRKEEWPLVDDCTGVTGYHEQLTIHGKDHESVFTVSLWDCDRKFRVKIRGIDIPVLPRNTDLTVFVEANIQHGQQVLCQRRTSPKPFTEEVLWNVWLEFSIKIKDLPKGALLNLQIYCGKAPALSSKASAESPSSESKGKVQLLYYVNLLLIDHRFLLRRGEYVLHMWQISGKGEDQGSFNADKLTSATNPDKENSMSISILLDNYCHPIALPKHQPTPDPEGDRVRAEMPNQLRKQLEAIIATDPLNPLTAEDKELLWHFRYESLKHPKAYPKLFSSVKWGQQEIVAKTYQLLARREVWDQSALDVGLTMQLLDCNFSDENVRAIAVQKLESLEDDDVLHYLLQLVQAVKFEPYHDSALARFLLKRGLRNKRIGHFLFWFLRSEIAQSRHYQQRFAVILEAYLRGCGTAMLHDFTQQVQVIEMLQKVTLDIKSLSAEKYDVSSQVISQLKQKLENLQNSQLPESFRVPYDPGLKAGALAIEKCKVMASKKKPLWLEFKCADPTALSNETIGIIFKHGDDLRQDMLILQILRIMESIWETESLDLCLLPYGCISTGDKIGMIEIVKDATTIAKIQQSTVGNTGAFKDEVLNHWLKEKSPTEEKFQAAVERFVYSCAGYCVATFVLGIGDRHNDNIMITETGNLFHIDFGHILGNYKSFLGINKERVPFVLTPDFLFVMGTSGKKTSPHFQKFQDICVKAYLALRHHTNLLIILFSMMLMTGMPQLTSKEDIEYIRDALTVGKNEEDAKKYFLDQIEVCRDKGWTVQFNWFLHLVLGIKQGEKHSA
Chain of p110β/p85α (P42338 whole entry, looked up): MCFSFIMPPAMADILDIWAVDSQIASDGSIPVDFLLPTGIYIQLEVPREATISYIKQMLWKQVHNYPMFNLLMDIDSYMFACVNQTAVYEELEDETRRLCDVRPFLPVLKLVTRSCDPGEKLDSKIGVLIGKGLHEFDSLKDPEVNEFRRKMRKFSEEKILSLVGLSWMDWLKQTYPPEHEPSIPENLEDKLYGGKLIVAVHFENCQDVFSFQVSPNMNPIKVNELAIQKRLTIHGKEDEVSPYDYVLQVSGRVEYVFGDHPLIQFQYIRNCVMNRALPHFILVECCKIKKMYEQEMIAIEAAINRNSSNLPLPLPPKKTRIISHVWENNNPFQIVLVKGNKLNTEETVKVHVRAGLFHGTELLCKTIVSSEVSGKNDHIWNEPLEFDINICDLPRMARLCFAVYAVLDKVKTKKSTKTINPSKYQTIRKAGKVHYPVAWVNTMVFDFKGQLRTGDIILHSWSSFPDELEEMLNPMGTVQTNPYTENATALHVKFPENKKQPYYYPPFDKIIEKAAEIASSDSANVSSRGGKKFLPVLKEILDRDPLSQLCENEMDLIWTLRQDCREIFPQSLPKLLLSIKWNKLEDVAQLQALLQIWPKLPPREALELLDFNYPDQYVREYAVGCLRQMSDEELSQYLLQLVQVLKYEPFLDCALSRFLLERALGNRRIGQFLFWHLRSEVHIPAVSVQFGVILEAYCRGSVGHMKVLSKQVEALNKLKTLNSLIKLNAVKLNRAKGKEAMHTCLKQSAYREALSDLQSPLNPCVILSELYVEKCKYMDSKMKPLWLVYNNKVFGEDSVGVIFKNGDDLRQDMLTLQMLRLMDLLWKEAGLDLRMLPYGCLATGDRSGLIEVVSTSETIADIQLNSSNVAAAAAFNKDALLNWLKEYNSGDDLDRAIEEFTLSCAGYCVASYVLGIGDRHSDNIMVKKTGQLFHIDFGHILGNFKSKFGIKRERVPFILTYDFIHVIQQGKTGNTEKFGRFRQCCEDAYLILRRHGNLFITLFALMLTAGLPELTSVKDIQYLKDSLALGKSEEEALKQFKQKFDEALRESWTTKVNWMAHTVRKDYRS
Chain of p110δ/p85α (O00329 whole entry): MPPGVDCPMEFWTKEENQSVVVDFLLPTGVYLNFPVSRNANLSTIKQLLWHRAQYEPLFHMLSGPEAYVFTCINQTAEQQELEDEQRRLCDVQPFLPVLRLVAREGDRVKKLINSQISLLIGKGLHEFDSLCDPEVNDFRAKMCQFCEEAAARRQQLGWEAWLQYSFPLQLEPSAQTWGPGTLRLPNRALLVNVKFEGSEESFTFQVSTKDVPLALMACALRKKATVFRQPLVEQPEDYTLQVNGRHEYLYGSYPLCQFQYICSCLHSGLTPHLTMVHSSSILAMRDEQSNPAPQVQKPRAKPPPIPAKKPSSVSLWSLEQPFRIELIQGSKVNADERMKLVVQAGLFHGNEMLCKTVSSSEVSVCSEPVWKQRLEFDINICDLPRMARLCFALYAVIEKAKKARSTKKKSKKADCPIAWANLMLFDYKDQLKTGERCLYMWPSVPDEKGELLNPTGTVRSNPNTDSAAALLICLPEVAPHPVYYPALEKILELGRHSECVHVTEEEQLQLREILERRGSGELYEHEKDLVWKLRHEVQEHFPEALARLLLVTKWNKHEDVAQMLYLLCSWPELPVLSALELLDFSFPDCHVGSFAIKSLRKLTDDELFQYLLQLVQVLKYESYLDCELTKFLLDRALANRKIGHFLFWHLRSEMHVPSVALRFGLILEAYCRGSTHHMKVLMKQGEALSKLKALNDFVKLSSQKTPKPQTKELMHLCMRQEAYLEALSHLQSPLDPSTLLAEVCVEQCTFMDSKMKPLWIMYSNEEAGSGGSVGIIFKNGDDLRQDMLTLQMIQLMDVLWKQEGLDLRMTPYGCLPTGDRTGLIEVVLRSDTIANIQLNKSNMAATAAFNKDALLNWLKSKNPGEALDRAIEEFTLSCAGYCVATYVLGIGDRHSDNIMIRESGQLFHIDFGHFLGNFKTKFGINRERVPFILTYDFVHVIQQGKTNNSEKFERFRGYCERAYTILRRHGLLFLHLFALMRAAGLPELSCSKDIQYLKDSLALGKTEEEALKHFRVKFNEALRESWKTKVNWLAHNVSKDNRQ
Chain of p110δ/p85α (P27986 whole entry partner): as the sequence (P27986 whole entry partner) above

| Compound | IC50 [1] | IC50 [2] | IC50 [3] | IC50 [5] | EC50 [4] | EC50 ([4]; Mus musculus, B-cell) |
| --- | --- | --- | --- | --- | --- | --- |
| Nc1nc2ccc(-c3nn(Cc4cc5ccccc5nc4N4CCCC4)c4ncnc(N)c34)cc2s1 [Compound 196] | < 100 nM | 100 to 1000 nM | < 100 nM |  | 100 to 1000 nM |  |
| CN1CCN(c2ncccc2Cn2nc(-c3cc(O)cc(F)c3)c3c(N)ncnc32)CC1 [Compound 200] | > 1000 nM | > 1000 nM | < 100 nM |  |  | 100 to 1000 nM |
| CC(c1cc2ccccc2nc1N1CCCC1)n1nc(-c2cccc(O)c2)c2c(N)ncnc21 (stereo not drawn) [Compound 32] | 100 to 1000 nM |  | < 100 nM |  |  | < 100 nM |
| CC(C)Nc1nc2ccccc2cc1Cn1nc(-c2cc(O)cc(F)c2)c2c(N)ncnc21 [Compound 25] | > 1000 nM |  | 100 to 1000 nM |  |  | > 1000 nM |
| Nc1ncnc2c1c(-c1cc(O)cc(F)c1)nn2Cc1cc2ccccc2nc1CN1CCCC1 [Compound 174] |  | > 1000 nM | < 100 nM | < 100 nM |  | < 100 nM |
| CC(C)N(C)c1nc2ccccc2cc1Cn1nc(-c2cccc(O)c2)c2c(N)ncnc21 [Compound 150] | < 100 nM |  | < 100 nM | > 1000 nM |  | < 100 nM |
| COc1ccccc1-c1nc2ccccc2cc1Cn1nc(-c2cc(O)cc(F)c2)c2c(N)ncnc21 [Compound 15] |  |  | < 100 nM |  |  | < 100 nM |
| Nc1ncnc2c1c(-c1cc(O)cc(F)c1)nn2Cc1cc2ccccc2nc1N1CCN(CCO)CC1 [Compound 34] | 100 to 1000 nM |  | < 100 nM |  |  | < 100 nM |
| Nc1ncnc2c1c(-c1cc(O)cc(F)c1)nn2Cc1cnc2ccccc2c1 [Compound 61] | < 100 nM |  | < 100 nM |  |  | < 100 nM |
| Nc1ncnc2c1c(-c1cc(O)cc(F)c1)nn2Cc1cc2ccccc2nc1N1CCCCC1 [Compound 20] |  |  | < 100 nM |  |  | < 100 nM |
| Nc1ncnc2c1c(-c1cccc(O)c1)nn2Cc1cc2ccccc2nc1-c1ccccc1 [Compound 148] | < 100 nM |  | < 100 nM | > 1000 nM |  | < 100 nM |
| C[C@@H](O)C#Cc1nn(Cc2cc3ccccc3nc2N2CCCC2)c2ncnc(N)c12 [Compound 48] | > 1000 nM |  | 100 to 1000 nM |  |  | 100 to 1000 nM |
| Nc1ncnc2c1c(-c1ccc3cc[nH]c3c1)nn2Cc1cc2ccccc2nc1N1CCCC1 [Compound 147] | < 100 nM | 100 to 1000 nM | < 100 nM |  |  | 100 to 1000 nM |
| Nc1ncnc2c1c(-c1cc(O)cc(F)c1)nn2Cc1cc2ccccc2nc1NC1CCC1 [Compound 42] |  |  | < 100 nM |  |  | < 100 nM |
| Nc1nc2cc(-c3nn(Cc4cc5ccccc5nc4-c4ccccc4C(F)(F)F)c4ncnc(N)c34)ccc2[nH]1 [Compound 155] | > 1000 nM | > 1000 nM | < 100 nM |  |  | 100 to 1000 nM |
| CC(=O)Nc1nc2ccc(-c3nn(Cc4cc5ccccc5nc4N(C)C(C)C)c4ncnc(N)c34)cc2s1 [Compound 151] | < 100 nM |  | < 100 nM | 100 to 1000 nM |  | < 100 nM |
| C[C@@H](O)C#Cc1nn(Cc2cc3ccccc3nc2-c2ccccc2C(F)(F)F)c2ncnc(N)c12 [Compound 49] | > 1000 nM |  | 100 to 1000 nM |  |  | 100 to 1000 nM |
| Nc1ncnc2c1c(-c1cnc3[nH]ccc3c1)nn2Cc1cc2ccccc2nc1N1CCCC1 [Compound 23] |  |  | < 100 nM |  |  | < 100 nM |
| NCc1ccc(F)cc1-c1nc2ccccc2cc1Cn1nc(-c2cc(O)cc(F)c2)c2c(N)ncnc21 [Compound 26] | > 1000 nM |  | < 100 nM |  |  | < 100 nM |
| Cc1ccccc1-c1nc2ccccc2n1CCn1nc(-c2cc(O)cc(F)c2)c2c(N)ncnc21 [Compound 127] | > 1000 nM |  | < 100 nM |  |  | 100 to 1000 nM |
| Cc1cccc2cc(Cn3nc(-c4cccc(O)c4)c4c(N)ncnc43)c(N3CCN(C)CC3)nc12 [Compound 13] |  |  | < 100 nM |  |  | < 100 nM |
| Nc1ncnc2c1c(-c1cccc(O)c1)nn2Cc1cc2ccccc2nc1-c1ccccc1C(F)(F)F [Compound 46] | 100 to 1000 nM |  | < 100 nM |  |  | 100 to 1000 nM |
| CC(c1cc2ccccc2nc1-c1ccccc1)n1cnc2c(N)ncnc21 (stereo not drawn) [Compound 60] | > 1000 nM |  | > 1000 nM |  |  | > 1000 nM |
| Nc1ncnc2c1c(-c1cccc(O)c1)nn2Cc1cc2ccccc2nc1-c1ccccc1F [Compound 91] | 100 to 1000 nM | > 1000 nM | 100 to 1000 nM | > 1000 nM |  |  |
| Nc1ncnc2c1c(-c1cccc(O)c1)nn2Cc1cc2ccccc2[nH]c1=O [Compound 109] | > 1000 nM | > 1000 nM | 100 to 1000 nM | > 1000 nM |  |  |

Continued, in another order:

| IC50 [1] | IC50 [2] | IC50 [3] | IC50 [5] | Compound | EC50 [4] | EC50 ([4]; Mus musculus, B-cell) |
| --- | --- | --- | --- | --- | --- | --- |
| < 100 nM |  | < 100 nM |  | CC(c1cc2ccccc2nc1N1CCCC1)n1nc(-c2cc(O)cc(F)c2)c2c(N)ncnc21 (stereo not drawn) [Compound 30] |  | < 100 nM |
|  |  | < 100 nM |  | Cc1cccc2cc(Cn3nc(-c4cc(O)cc(F)c4)c4c(N)ncnc43)c(N3CCN(C)CC3)nc12 [Compound 12] |  | < 100 nM |
|  |  | < 100 nM |  | Cc1cccc2cc(Cn3nc(I)c4c(N)ncnc43)c(N3CCN(C)CC3)nc12 [Compound 11] |  | < 100 nM |
| 100 to 1000 nM |  | < 100 nM |  | Nc1ncnc2c1c(-c1cc(O)cc(F)c1)nn2Cc1cc2ccccc2nc1-c1ccccc1C(F)(F)F [Compound 45] |  | < 100 nM |
|  | < 100 nM | < 100 nM | 100 to 1000 nM | CC1CCCN1c1nc2ccccc2cc1Cn1nc(-c2ccc3nc(N)sc3c2)c2c(N)ncnc21 (stereo not drawn) [Compound 187] |  | < 100 nM |
|  |  | < 100 nM |  | CC(C)c1ccccc1-c1nc2ccccc2cc1Cn1nc(C#C[C@@H](C)O)c2c(N)ncnc21 [Compound 16] |  | 100 to 1000 nM |
| > 1000 nM |  | < 100 nM |  | CC(c1cc2ccccc2nc1N1CCCC1)n1nc(C#C[C@@H](C)O)c2c(N)ncnc21 (stereo partly drawn) [Compound 31] |  | 100 to 1000 nM |
| < 100 nM | < 100 nM | < 100 nM |  | CC(=O)Nc1nc2ccc(-c3nn(Cc4cc5ccccc5nc4N4CCOCC4)c4ncnc(N)c34)cc2s1 [Compound 128] |  | < 100 nM |
| < 100 nM |  | < 100 nM |  | Nc1ncnc2c1c(-c1cccc(O)c1)nn2Cc1cc2ccccc2nc1N1CCCC1 [Compound 47] |  | < 100 nM |
|  |  | < 100 nM |  | Nc1ncnc2c1c(-c1cc(O)cc(F)c1)nn2Cc1cc2ccccc2nc1-c1ccccc1F [Compound 19] |  | < 100 nM |
| 100 to 1000 nM | < 100 nM | < 100 nM |  | CC(C)N(C)c1nc2ccccc2cc1Cn1nc(-c2ccc3nc(N)sc3c2)c2c(N)ncnc21 [Compound 154] |  | < 100 nM |
| < 100 nM | > 1000 nM | < 100 nM |  | Cc1ccccc1-c1nc2ccccc2cc1Cn1nc(-c2ccc3nc(N)[nH]c3c2)c2c(N)ncnc21 [Compound 182] |  | 100 to 1000 nM |
| > 1000 nM | > 1000 nM | < 100 nM | > 1000 nM | CCn1c(=O)c(Cn2nc(-c3cc(O)cc(F)c3)c3c(N)ncnc32)cc2ccccc21 [Compound 113] |  |  |
